Assay results reported in US20070276011A1, “Plasminogen Activator Inhibitor-1 Inhibitor” (priority 2003, published 2007).

Columns and labels:
[1] = molecular target: T1, recombinant human PAI-1 (Homo sapiens, UniProt P05121); test: PAI-1 inhibitory activity, Test Method A (tPA fluorogenic substrate, Tris buffer pH8.0, 37 C); assay type: biochemical; conditions: for IC50: 50% inhibitory concentration of PAI-1 activity, according to the aforementioned method; for Inhibitory Ratio at 25 μM (%): Test Method A
T1 sequence (P05121 24-402): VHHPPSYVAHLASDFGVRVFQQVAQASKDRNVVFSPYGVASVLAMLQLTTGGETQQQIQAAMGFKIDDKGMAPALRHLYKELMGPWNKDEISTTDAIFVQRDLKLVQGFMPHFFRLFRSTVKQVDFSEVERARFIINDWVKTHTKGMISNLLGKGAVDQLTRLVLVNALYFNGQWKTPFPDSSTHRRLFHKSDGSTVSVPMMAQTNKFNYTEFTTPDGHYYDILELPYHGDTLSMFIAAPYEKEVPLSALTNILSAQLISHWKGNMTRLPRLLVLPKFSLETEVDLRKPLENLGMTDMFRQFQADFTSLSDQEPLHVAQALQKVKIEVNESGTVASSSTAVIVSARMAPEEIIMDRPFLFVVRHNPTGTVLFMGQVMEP

[2] = molecular target: T1, recombinant human PAI-1; test: Inhibition of complex formation of PAI-1 and tPA (SDS-PAGE); assay type: biochemical; conditions: 100 μM concentration
Experimental: To a 2.5 μL solution obtained by diluting a DMSO solution of the test compound at 4-fold concentration of the test concentration with PBS(-), 5 μL of 150 nM recombinant human PAI-1 solution adjusted with a phosphate buffer (pH6.6, 0.05M Sodium Phosphate, 0.1 M NaCl, 1 mM EDTA) was added, and reacted for 5 minutes at 37° C. […] of 600 nM recombinant human one-chain tPA solution adjusted with PBS(-) was added, and further reacted for 5 minutes at 37° C. 10 μL of stop buffer (1.25 mM Tris-HCl pH6.8, 4% SDS, 0.01% BPB, 14% Glycerol) was added, heated for 30 seconds at 100° C., and then the total amount of 20 μL was applied to 10% SDS-PAGE gel electrophoresis. When the test compound was not added as being a control, a band of PAI-1-tPA complex was observed.

| IC50 [1] | Inhibitory Ratio at 25 μM (%) ([1]; test compound 25 μM) | inhibition of the complex formation of PAI-1 and tPA observed with SDS-PAGE [2] | Inhibitory Ratio at 25 μM (%) ([1]; 25 μM test compound) | Structure (SMILES) |
| --- | --- | --- | --- | --- |
| 240 nM | >99% | completely inhibited | – | CC(C)C1=NN(c2ccc(Cl)c(Cl)c2)C(=O)C1=Cc1cc(O)c(O)cc1O [compound 141, 4-(2,4,5-trihydroxybenzylidene)-1-(3,4-dichlorophenyl)-3-isopropyl-2-pyrazolin-5-one] |
| – | – | completely inhibited | >99% | CC1=NN(c2ccc(Cl)c(Cl)c2)C(=O)C1=Cc1cc(O)c(O)cc1O [compound 503] |
| – | – | completely inhibited | 71% | O=C(Nc1cc(O)c(O)c(O)c1)c1cc(C=C2SC(=O)N(Cc3ccc(Cl)c(Cl)c3)C2=O)ccc1O [compound 435] |
| 450 nM | – | completely inhibited | >99% | O=C1SC(=Cc2cc(O)c(O)c([N+](=O)[O-])c2)C(=O)N1Cc1ccc(Cl)c(Cl)c1 [compound 347] |
| – | – | completely inhibited | 91% | O=C(Nc1ccc(O)c(O)c1)c1cc(C=C2SC(=O)N(Cc3cc(C(F)(F)F)cc(C(F)(F)F)c3)C2=O)ccc1O [compound 384] |
| 480 nM | – | completely inhibited | 71% | O=C(Nc1cc(Cl)ccc1Cl)c1cc(C=C2SC(=O)N(Cc3ccc(Cl)c(Cl)c3)C2=O)ccc1O [compound 441] |
| – | – | completely inhibited | 96% | Cc1cc(C=C2SC(=O)N(Cc3ccc(Cl)c(Cl)c3)C2=O)cc(C(=O)Nc2ccc(O)c(O)c2)c1O [compound 401, 5-[3-Methyl-4-hydroxy-5-(3,4-dihydroxyphenylcarbamoyl)-benzylidene]-3-(3,4-dichlorobenzyl)thiazolidine-2,4-dione] |
| 420 nM | – | completely inhibited | >99% | O=C(Cc1cc(C(F)(F)F)cc(C(F)(F)F)c1)Nc1ccc(CN2C(=O)SC(=Cc3cccc(O)c3O)C2=O)cc1 [compound 317, 5-(2,3-Dihydroxybenzylidene)-3-{4-[3,5-Bis(trifluoromethyl)-phenylacetylamino]benzyl}thiazolidine-2,4-dione] |
| 340 nM | – | completely inhibited | >99% | O=C(Cc1cccc(Oc2ccccc2)c1)Nc1cccc(CN2C(=O)SC(=Cc3cccc(O)c3O)C2=O)c1 [compound 320, 5-(2,3-Dihydroxybenzylidene)-3-{3-[(3-phenoxyphenyl)acetylamino]-benzyl}thiazolidine-2,4-dione] |
| 300 nM | 70% | completely inhibited | – | CCOC1=NN(c2ccc([N+](=O)[O-])cc2)C(=O)C1=Cc1cc(O)c(O)cc1O [compound 156] |
| 360 nM | >99% | completely inhibited | – | O=C1SC(=Cc2cccc(O)c2O)C(=O)N1Cc1ccc(C(F)(F)F)cc1 [compound 43, 5-(2,3-Dihydroxybenzylidene)-3-[4-(trifluoromethyl)benzyl]thiazolidine-2,4-dione] |
| – | – | completely inhibited | 66% | O=C(Nc1ccc(O)c(O)c1)c1cc(C=C2SC(=O)N(Cc3ccc(Cl)c(Cl)c3)C2=O)ccc1O [compound 352] |

| Structure (SMILES) | IC50 [1] | Inhibitory Ratio at 25 μM (%) ([1]; test compound 25 μM) | inhibition of the complex formation of PAI-1 and tPA observed with SDS-PAGE [2] | Inhibitory Ratio at 25 μM (%) ([1]; 25 μM test compound) |
| --- | --- | --- | --- | --- |
| O=C(Nc1cc(C(F)(F)F)ccc1Cl)c1cc(C=C2SC(=O)N(Cc3ccc(Cl)c(Cl)c3)C2=O)ccc1O [compound 423] | – | – | completely inhibited | 75% |
